The record followed here is patent US20250376461A1, “INDAZOLE DERIVATIVES FOR TREATING TRPM3-MEDIATED DISORDERS” (Katholieke Universiteit Leuven, priority 2022, published 2025).

T1 sequence (J9SQF3 1-1709 isoform J9SQF3-12): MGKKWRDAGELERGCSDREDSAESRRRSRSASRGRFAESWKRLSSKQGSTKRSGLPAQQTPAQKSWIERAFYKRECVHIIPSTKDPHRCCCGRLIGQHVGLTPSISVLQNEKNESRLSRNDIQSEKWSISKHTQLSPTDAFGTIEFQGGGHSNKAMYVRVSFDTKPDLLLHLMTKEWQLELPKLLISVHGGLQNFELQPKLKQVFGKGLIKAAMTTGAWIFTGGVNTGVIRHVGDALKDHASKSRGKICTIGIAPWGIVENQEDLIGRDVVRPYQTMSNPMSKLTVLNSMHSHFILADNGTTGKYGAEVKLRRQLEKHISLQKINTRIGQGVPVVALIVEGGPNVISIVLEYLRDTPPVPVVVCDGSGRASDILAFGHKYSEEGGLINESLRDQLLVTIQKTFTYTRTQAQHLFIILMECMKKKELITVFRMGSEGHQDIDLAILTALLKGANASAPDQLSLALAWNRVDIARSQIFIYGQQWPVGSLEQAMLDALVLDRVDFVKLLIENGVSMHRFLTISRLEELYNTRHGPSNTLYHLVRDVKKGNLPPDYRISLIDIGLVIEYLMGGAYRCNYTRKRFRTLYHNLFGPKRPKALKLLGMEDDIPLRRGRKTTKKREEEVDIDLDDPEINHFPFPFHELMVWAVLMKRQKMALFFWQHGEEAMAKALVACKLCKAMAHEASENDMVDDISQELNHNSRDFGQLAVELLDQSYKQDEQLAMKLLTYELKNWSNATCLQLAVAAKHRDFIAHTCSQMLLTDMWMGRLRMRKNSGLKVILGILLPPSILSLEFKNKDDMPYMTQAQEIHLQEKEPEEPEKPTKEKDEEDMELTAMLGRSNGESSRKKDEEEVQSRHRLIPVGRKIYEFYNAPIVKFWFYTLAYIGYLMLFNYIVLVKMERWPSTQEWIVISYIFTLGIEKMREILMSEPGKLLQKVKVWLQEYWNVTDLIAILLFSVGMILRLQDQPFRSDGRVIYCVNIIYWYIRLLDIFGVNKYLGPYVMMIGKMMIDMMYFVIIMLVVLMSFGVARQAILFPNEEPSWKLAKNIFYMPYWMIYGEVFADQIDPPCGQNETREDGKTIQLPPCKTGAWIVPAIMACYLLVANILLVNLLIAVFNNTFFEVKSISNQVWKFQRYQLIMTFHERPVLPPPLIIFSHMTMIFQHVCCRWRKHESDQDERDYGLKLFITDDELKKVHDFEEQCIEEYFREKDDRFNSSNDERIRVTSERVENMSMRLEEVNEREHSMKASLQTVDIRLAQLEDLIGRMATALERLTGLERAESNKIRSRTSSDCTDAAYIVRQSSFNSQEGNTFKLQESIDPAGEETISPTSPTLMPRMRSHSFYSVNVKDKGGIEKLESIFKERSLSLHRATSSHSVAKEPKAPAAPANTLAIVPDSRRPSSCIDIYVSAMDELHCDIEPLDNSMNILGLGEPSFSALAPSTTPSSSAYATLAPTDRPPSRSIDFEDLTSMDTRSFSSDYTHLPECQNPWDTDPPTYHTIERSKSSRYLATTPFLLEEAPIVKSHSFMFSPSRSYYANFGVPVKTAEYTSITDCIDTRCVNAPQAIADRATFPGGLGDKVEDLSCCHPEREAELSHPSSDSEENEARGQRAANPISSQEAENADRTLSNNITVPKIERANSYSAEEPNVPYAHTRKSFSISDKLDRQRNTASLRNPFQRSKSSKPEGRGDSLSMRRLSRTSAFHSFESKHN

This assay addresses T1, mouse TRPM3α2 (mTRPM3) ion channel (Mus musculus, UniProt J9SQF3).
T1 construct: expressed in transfected cells; host or cells: flip-in HEK293
The assay can be described thus: TRPM3 ion channel driven Ca2+ uptake, Fluo-4 AM assay, mTRPM3alpha2 overexpressing flip-in HEK293 cells stimulated with pregnenolone sulfate (50 μM). Type of assay: cell-based. Particulars: mTRPM3 overexpressing HEK293 cells stimulated with pregnenolone sulfate (50 μM), activity ranges A, B, C. The gist of the method:
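Flip-in HEK293 cells overexpressing mTRPM3α2, loaded with Fluo-4 AM, added at ±2000 cells/well to plates holding compound plus 50 μM pregnenolone sulfate in Ca2+-containing Krebs buffer. Fluorescence (ex 485/em 535 nm) read immediately. Percent inhibition normalised between vehicle and positive-control inhibitor; IC50 derived.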
On to `Cn1nc2ccc(OCc3ccccn3)cc2c1C(=O)NC(CO)C(F)(F)F` (single isomer, unassigned) [Cpd 254 - En2], for which the IC50 was greater than 20 µM.
Under `Cn1nc2ccc(OCc3ccccn3)cc2c1C(=O)NC(CO)Cc1ccccn1` (single isomer, unassigned) [Cpd 252 - En2] stands greater than 20 µM; under `Cn1nccc1COc1ccc2nn(C)c(C(=O)NC3(CO)CCC3)c2c1` [Cpd 044, N-[1-(hydroxymethyl)cyclobutyl]-2-methyl-5-[(1-methyl-1H-pyrazol-5-yl)methoxy]-2H-indazole-3-carboxamide], 1 to 20 µM.
Under `COCC(C)(CO)NC(=O)c1c2cc(OCc3ccccn3)ccc2nn1C` (single isomer, unassigned) [Cpd 258 - En2] stands 1 to 20 µM; under `Cc1ncsc1COc1ccc2nn(C)c(C(=O)NC(C)(C)CO)c2c1` [Cpd 005, N-(1-hydroxy-2-methylpropan-2-yl)-2-methyl-5-[(4-methyl-1,3-thiazol-5-yl)methoxy]-2H-indazole-3-carboxamide], 1 to 20 µM.
The compound `Cn1nc2ccc(OCc3ccccn3)cc2c1C(=O)NC1(CO)CCOCC1` [Cpd 106, N-[4-(hydroxymethyl)oxan-4-yl]-2-methyl-5-[(pyridin-2-yl)methoxy]-2H-indazole-3-carboxamide] showed an IC50 of 1 to 20 µM.
As for `Cn1nc2ccc(OCc3ccccc3)cc2c1C(=O)N[C@@H]1COC[C@H]1O` (single isomer, unassigned) [Cpd 011 - Dia2], the figure is 1 to 20 µM; as for `Cn1nc2ccc(OCC3CCC3)cc2c1C(=O)NC1(CO)CCNC1=O` (single isomer, unassigned) [Cpd 159 - En2], less than 1 µM.
Compound `Cn1nc2ccc(OCc3ccccn3)cc2c1C(=O)NC(CO)c1ccccn1` (single isomer, unassigned) [Cpd 221 - En1] had an IC50 of 1 to 20 µM.
Consider `Cn1nc2ccc(OCc3ccccn3)cc2c1C(=O)NC1(CC(F)F)CCCNC1` (single isomer, unassigned) [Cpd 248 - En1], for which the IC50 was greater than 20 µM.
Under `Cn1nccc1COc1ccc2nn(C)c(C(=O)NCC(C)(C)CO)c2c1` [Cpd 012, N-(3-hydroxy-2,2-dimethylpropyl)-2-methyl-5-[(1-methyl-1H-pyrazol-5-yl)methoxy]-2H-indazole-3-carboxamide] stands 1 to 20 µM; under `Cn1nc2ccc(OCc3ccccn3)cc2c1C(=O)NC1CNCC1C(F)(F)F` (single isomer, unassigned) [Cpd 246 - En2], less than 1 µM; under `Cc1ncc(COc2ccc3nn(C)c(C(=O)NCC(F)F)c3c2)s1` [Cpd 150, N-(2,2-difluoroethyl)-2-methyl-5-[(2-methyl-1,3-thiazol-5-yl)methoxy]-2H-indazole-3-carboxamide], 1 to 20 µM.
As for `Cn1nc2ccc(OCc3ccccn3)cc2c1C(=O)NC(CCO)c1ccc(F)cc1` (single isomer, unassigned) [Cpd 223 - En1], the figure is greater than 20 µM; as for `Cn1nc2ccc(OCc3ccccn3)cc2c1C(=O)NC(CO)c1ccc(F)cc1` (single isomer, unassigned) [Cpd 220 - En1], greater than 20 µM; as for `Cc1ncsc1COc1ccc2nn(C)c(C(=O)NC3(C(N)=O)CCC3)c2c1` [Cpd 070, N-(1-carbamoylcyclobutyl)-2-methyl-5-[(4-methyl-1,3-thiazol-5-yl)methoxy]-2H-indazole-3-carboxamide], less than 1 µM.
Under `CN1CCC(NC(=O)c2c3cc(OCc4ccccc4)ccc3nn2C)C1` (stereo not drawn) [Cpd 092, 5-(benzyloxy)-2-methyl-N-(1-methylpyrrolidin-3-yl)-2H-indazole-3-carboxamide] stands 1 to 20 µM; under `Cn1nc2ccc(OCc3ccccn3)cc2c1C(=O)NC1(C(N)=O)CCOCC1` [Cpd 085, N-(4-carbamoyloxan-4-yl)-2-methyl-5-[(pyridin-2-yl)methoxy]-2H-indazole-3-carboxamide], 1 to 20 µM.
Regarding `Cn1nc2ccc(OCc3ccccn3)cc2c1C(=O)NC(CO)CC(N)=O` (single isomer, unassigned) [Cpd 240 - En1, 4-hydroxy-3-({2-methyl-5-[(pyridin-2-yl)methoxy]-2H-indazol-3-yl}formamido)butanamide], the IC50 was greater than 20 µM.
`Cn1nc2ccc(OCC3CC3)cc2c1C(=O)N[C@H](CO)C(N)=O` [Cpd 136, (2R)-2-{[5-(cyclopropylmethoxy)-2-methyl-2H-indazol-3-yl]formamido}-3-hydroxypropanamide] showed an IC50 of 1 to 20 µM.
Under `Cc1ncsc1COc1ccc2nn(C)c(C(=O)NC3COCC3O)c2c1` (single isomer, unassigned) [Cpd 080 - Dia2] stands greater than 20 µM; under `Cc1ncsc1COc1ccc2nn(C)c(C(=O)NC3CNCC(F)(F)C3)c2c1` (single isomer, unassigned) [Cpd 213 - En1], 1 to 20 µM.
As for `CNC(=O)C(C)(CO)NC(=O)c1c2cc(OCc3scnc3C)ccc2nn1C` (single isomer, unassigned) [Cpd 185 - En2, 3-hydroxy-N,2-dimethyl-2-({2-methyl-5-[(4-methyl-1,3-thiazol-5-yl)methoxy]-2H-indazol-3-yl}formamido)propanamide], the figure is less than 1 µM.
As for `Cc1nc(COc2ccc3nn(C)c(C(=O)NC(C)(CO)C(N)=O)c3c2)cs1` (single isomer, unassigned) [Cpd 160 - En2], the figure is less than 1 µM.
Consider `Cc1ncsc1COc1ccc2nn(C)c(C(=O)NC3CCNC3)c2c1` (single isomer, unassigned) [Cpd 215 - En1], for which the IC50 was greater than 20 µM.
As for `Cn1nc2ccc(OCc3cccnc3C(F)(F)F)cc2c1C(=O)N[C@@H]1COC[C@@H]1O` (single isomer, unassigned) [Cpd 010 - Dia2], the figure is 1 to 20 µM; as for `Cc1ncsc1COc1ccc2nn(C)c(C(=O)NC3CCNC3=O)c2c1` (stereo not drawn) [Cpd 064, 2-methyl-5-[(4-methyl-1,3-thiazol-5-yl)methoxy]-N-(2-oxopyrrolidin-3-yl)-2H-indazole-3-carboxamide], 1 to 20 µM.
`Cc1ncsc1COc1ccc2nn(C)c(C(=O)N[C@@H](CO)C(N)=O)c2c1` [Cpd 116, (2S)-3-hydroxy-2-({2-methyl-5-[(4-methyl-1,3-thiazol-5-yl)methoxy]-2H-indazol-3-yl}formamido)propanamide]: the IC50 was less than 1 µM.
Under `Cn1nc2ccc(OCc3ccccc3F)cc2c1C(=O)NC(CO)CO` [Cpd 262, N-(1,3-dihydroxypropan-2-yl)-5-[(2-fluorophenyl)methoxy]-2-methyl-2H-indazole-3-carboxamide] stands 1 to 20 µM; under `Cn1nc2ccc(OCc3ccccn3)cc2c1C(=O)NC1CNCCC1(F)F` (single isomer, unassigned) [Cpd 212 - En2, N-(4,4-difluoropiperidin-3-yl)-2-methyl-5-[(pyridin-2-yl)methoxy]-2H-indazole-3-carboxamide], greater than 20 µM; under `Cc1ncsc1COc1ccc2nn(C)c(C(=O)N[C@H](C)C(N)=O)c2c1` [Cpd 118, (2R)-2-({2-methyl-5-[(4-methyl-1,3-thiazol-5-yl)methoxy]-2H-indazol-3-yl}formamido)propanamide], 1 to 20 µM.
Under `Cn1nc2ccc(OCc3ccccn3)cc2c1C(=O)NC1CCNC1` (single isomer, unassigned) [Cpd 216 - En2] stands 1 to 20 µM; under `Cc1ncc(COc2ccc3nn(C)c(C(=O)NC(CO)(CO)CO)c3c2)s1` [Cpd 147, N-[1,3-dihydroxy-2-(hydroxymethyl)propan-2-yl]-2-methyl-5-[(2-methyl-1,3-thiazol-5-yl)methoxy]-2H-indazole-3-carboxamide], 1 to 20 µM.
As for `Cn1nccc1COc1ccc2nn(C)c(C(=O)NC3CCN(CCO)C3=O)c2c1` (stereo not drawn) [Cpd 039, N-[1-(2-hydroxyethyl)-2-oxopyrrolidin-3-yl]-2-methyl-5-[(1-methyl-1H-pyrazol-5-yl)methoxy]-2H-indazole-3-carboxamide], the figure is greater than 20 µM; as for `Cn1nc2ccc(OCC3CC3)cc2c1C(=O)NC(C)(CO)CO` [Cpd 135, 5-(cyclopropylmethoxy)-N-(1,3-dihydroxy-2-methylpropan-2-yl)-2-methyl-2H-indazole-3-carboxamide], 1 to 20 µM; as for `Cn1nc2ccc(OCc3cccnc3C(F)(F)F)cc2c1C(=O)NCC1CCC(=O)N1` (stereo not drawn) [Cpd 054, 2-methyl-N-[(5-oxopyrrolidin-2-yl)methyl]-5-{[2-(trifluoromethyl)pyridin-3-yl]methoxy}-2H-indazole-3-carboxamide], 1 to 20 µM.
Turning to `Cn1nc2ccc(OCc3ccccn3)cc2c1C(=O)NC1(CO)CC1(F)F` (single isomer, unassigned) [Cpd 235 - En2, N-[2,2-difluoro-1-(hydroxymethyl)cyclopropyl]-2-methyl-5-[(pyridin-2-yl)methoxy]-2H-indazole-3-carboxamide], the IC50 was in the range of 1 to 20 µM.
Under `Cn1nc2ccc(OCC(F)F)cc2c1C(=O)NC(C)(CO)C(N)=O` (single isomer, unassigned) [Cpd 187 - En1] stands greater than 20 µM; under `Cn1nc2ccc(OCc3ccccn3)cc2c1C(=O)NC(C)(CO)C(N)=O` (single isomer, unassigned) [Cpd 162 - En1], 1 to 20 µM.
As for `COCC(C)(CC(F)F)NC(=O)c1c2cc(OCc3ccccn3)ccc2nn1C` (single isomer, unassigned) [Cpd 230 - En2], the figure is 1 to 20 µM; as for `C[C@H](NC(=O)c1c2cc(OCc3ccccc3F)ccc2nn1C)C(N)=O` [Cpd 099, (2S)-2-({5-[(2-fluorophenyl)methoxy]-2-methyl-2H-indazol-3-yl}formamido)propanamide], less than 1 µM.
As for `Cc1ncsc1COc1ccc2nn(C)c(C(=O)NC3(C(N)=O)CCOC3)c2c1` (single isomer, unassigned) [Cpd 170 -En1], the IC50 was in the range of 1 to 20 µM.
